Structures can show the parent of a compound that is named as a salt.
How the values were obtained:
Assay type in all cases: cell-based
sonic hedgehog pathway [1] = assay: Human hedgehog reporter assay HEPM-GliLuc (HGL); conditions: HepM human embryonic palatal mesenchymal cells, Gli-luciferase reporter
Source text: (§1) Mouse (TM3: mouse Leydig cells; S12: mouse embryonic mesenchymal cells) and human (Daoy: human medulloblastoma cell; HepM: human embryonic palatal mesenchymal cell) cell lines are used to screen small molecules for their ability to modulate the activity of the sonic hedgehog pathway (Table 1, Table 2, and Table 3). Stable hedgehog pathway reporter cell lines are established by specific antibiotic selection following transfection of a reporter plasmid containing a luciferase gene located directly downstream from the gli promoter. Consequently, any observable changes in cellular luciferase activity may be attributed to changes in sonic hedgehog pathway activity in mouse and human cells, respectively, since gli is the major by-product of this pathway. To calculate activity, we generate an eleven point dose curve for each compound using 1:3 dilutions in 96 well assay plates. Each plate tested also contains low and high control to establish maximal pathway activation so to establish/compare a percentage activation of each tested compound (AMAX) on respective plates. Also we calculate EC50 values, or a concentration where the pathway will be exactly 50% activated, for each tested compound to determine potency. In these cell lines, compounds that register >20% AMAX values are considered active.
(§2) Stable hedgehog pathway reporter cell lines are established following specific antibiotic selection following transfection of a reporter plasmid In short, typically cells are plated in MicroTiter-plates at 10,000-20,000 cells per well, in growth media (containing 10%-20% FBS). After 48-72 hrs (HGL and DGL respectively) the media in the assay plates is switched to low-serum containing media (0.5% FBS). At that time compounds are added (at 1-5 μM) to the assay plates, in the presence or absence of hedgehog protein (octyl-modified version; 1-5 ng/ml). After another 24 hrs of incubation, the media from the assay plates is discarded and replaced with luciferase assay-mix. Subsequently, plates are incubated at RT for ˜15-30 mins and then read in a luminometer. [note: addition of the Hedgehog protein, although not critical, will sensitize the assay allowing the identification of weak actives].

sonic hedgehog pathway [2] = assay: Hedgehog pathway Gli-luciferase reporter assay, TM3 cells; conditions: TM3 mouse Leydig cells
Source text: as §1, §2

sonic hedgehog pathway [3] = assay: Human hedgehog reporter assay Daoy-GliLuc (DGL); conditions: Daoy human medulloblastoma cells, Gli-luciferase reporter; read-out: Daoy Avg. EC50
Source text: as §1, §2

Compound	EC50 (sonic hedgehog pathway [2]) [nM]	EC50 (sonic hedgehog pathway [3]) [nM]	EC50 (sonic hedgehog pathway [1]) [nM]
CCOc1ccc(-c2ccc(N)nc2C)cc1CN(C(=O)c1sc2ccccc2c1Cl)[C@H]1CC[C@H](NC)CC1 [Compound 403, 3-Chloro-benzo[b]thiophene-2-carboxylic acid [5-(6-amino-2-methyl-pyridin-3-yl)-2-ethoxy-benzyl]-(4-methylamino-cyclohexyl)-amide dihydrochloride]	1000 to 2500	–	250 to 1000
CN[C@H]1CC[C@@H](N(Cc2cc(-c3ccnc(C(=O)O)c3)ccc2OC)C(=O)c2sc3c(F)ccc(F)c3c2Cl)CC1 [Compound R6, 4-(3-{[(3-Chloro-4,7-difluoro-benzo[b]thiophene-2-carbonyl)-(4-methylamino-cyclohexyl)-amino]-methyl}-4-methoxy-phenyl)-pyridine-2-carboxylic acid bis(trifluoroacetate)]	50 to 250	–	50 to 250
CCOc1ccc(-c2ccc(C(F)(F)F)cc2)cc1CN(C(=O)c1sc2ccccc2c1Cl)[C@H]1CC[C@@H](NC)CC1 [Compound 309, 3-Chloro-benzo[b]thiophene-2-carboxylic acid (4-ethoxy-4′-trifluoromethyl-biphenyl-3-ylmethyl)-(4-methylamino-cyclohexyl)-amide hydrochloride]	50 to 250	< 50	–
CN[C@H]1CC[C@@H](N(Cc2cc(-c3cnc(N(C)C)nc3)ccc2OC)C(=O)c2sc3ccccc3c2Cl)CC1 [Compound 321, 3-Chloro-benzo[b]thiophene-2-carboxylic acid [5-(2-dimethylamino-pyrimidin-5-yl)-2-methoxy-benzyl]-(4-methylamino-cyclohexyl)-amide dihydrochloride]	1000 to 2500	50 to 250	–
CN[C@H]1CC[C@@H](N(Cc2cc(-c3ccc(S(C)(=O)=O)cc3)ccc2OC)C(=O)c2sc3ccccc3c2Cl)CC1 [Compound R7, 3-Chloro-benzo[b]thiophene-2-carboxylic acid (4′-methanesulfonyl-4-methoxy-biphenyl-3-ylmethyl)-(4-methylamino-cyclohexyl)-amide hydrochloride]	< 50	–	< 50
CN[C@H]1CC[C@H](N(Cc2cc(-c3ccc(C(O)C(F)(F)F)cc3)ccc2F)C(=O)c2sc3ccccc3c2Cl)CC1 (some centres unmarked) [Compound 433, 3-Chloro-benzo[b]thiophene-2-carboxylic acid [4-fluoro-4′-(2,2,2-trifluoro-1-hydroxy-ethyl)-biphenyl-3-ylmethyl]-(4-methylamino-cyclohexyl)-amide hydrochloride]	< 50	< 50	–
CN[C@H]1CC[C@H](N(Cc2cc(-c3ccc(C(=O)C(F)(F)F)cc3)ccc2F)C(=O)c2sc3c(F)ccc(F)c3c2Cl)CC1 [Compound 434, 3-Chloro-4,7-difluoro-benzo[b]thiophene-2-carboxylic acid [4-fluoro-4′-(2,2,2-trifluoro-acetyl)-biphenyl-3-ylmethyl]-(4-methylamino-cyclohexyl)-amide hydrochloride]	< 50	< 50	–
CN[C@H]1CC[C@@H](N(Cc2cc(-c3cnc(N)nc3)ccc2OC)C(=O)c2sc3ccccc3c2Cl)CC1 [Compound 323, 3-Chloro-benzo[b]thiophene-2-carboxylic acid [5-(2-amino-pyrimidin-5-yl)-2-methoxy-benzyl]-(4-methylamino-cyclohexyl)-amide dihydrochloride]	50 to 250	< 50	–
CNc1ncc(-c2ccc(OC)c(CN(C(=O)c3sc4ccccc4c3Cl)[C@H]3CC[C@@H](NC)CC3)c2)cn1 [Compound 322, 3-Chloro-benzo[b]thiophene-2-carboxylic acid [2-methoxy-5-(2-methylamino-pyrimidin-5-yl)-benzyl]-(4-methylamino-cyclohexyl)-amide dihydrochloride]	250 to 1000	50 to 250	–
CN[C@H]1CC[C@H](N(Cc2cc(-c3ccc(C#N)cc3)ccc2F)C(=O)c2sc3ccccc3c2Cl)CC1 [Compound 423, 3-Chloro-benzo[b]thiophene-2-carboxylic acid (4′-cyano-4-fluoro-biphenyl-3-ylmethyl)-(4-methylamino-cyclohexyl)-amide trifluoroacetate]	250 to 1000	250 to 1000	–
CCOc1ccc(-c2ccccc2)cc1CN(C(=O)c1sc2ccccc2c1Cl)[C@H]1CC[C@@H](NC)CC1 [Compound 313, 3-Chloro-benzo[b]thiophene-2-carboxylic acid (4-ethoxy-biphenyl-3-ylmethyl)-(4-methylamino-cyclohexyl)-amide hydrochloride]	50 to 250	< 50	–
CN[C@H]1CC[C@@H](N(Cc2cc(-c3ccc(OC(F)(F)F)cc3)ccc2OC)C(=O)c2sc3ccccc3c2Cl)CC1 [Compound 307, 3-Chloro-benzo[b]thiophene-2-carboxylic acid (4-methoxy-4′-trifluoromethoxy-biphenyl-3-ylmethyl)-(4-methylamino-cyclohexyl)-amide hydrochloride]	< 50	< 50	–

Now from value to compound, other results behind:

EC50 (sonic hedgehog pathway [2]) [nM]	EC50 (sonic hedgehog pathway [3]) [nM]	Compound	EC50 (sonic hedgehog pathway [1]) [nM]
< 50	–	CN[C@H]1CC[C@@H](N(Cc2cc(-c3ccncc3)ccc2OC)C(=O)c2sc3ccccc3c2Cl)CC1 [339 (R12)]	< 50
50 to 250	< 50	CN[C@H]1CC[C@@H](N(Cc2cc(-c3ccc(C(F)(F)F)cc3)ccc2OC)C(=O)c2sc3ccccc3c2Cl)CC1 [Compound 306, 3-Chloro-benzo[b]thiophene-2-carboxylic acid (4-methoxy-4′-trifluoromethyl-biphenyl-3-ylmethyl)-(4-methylamino-cyclohexyl)-amide trifluoroacetate]	–
< 50	< 50	CN[C@H]1CC[C@@H](N(Cc2cc(-c3ccc(C#N)cc3)ccc2OC)C(=O)c2sc3cccc(F)c3c2Cl)CC1 [Compound 366, 3-Chloro-4-fluoro-benzo[b]thiophene-2-carboxylic acid (4′-cyano-4-methoxy-biphenyl-3-ylmethyl)-(4-methylamino-cyclohexyl)-amide hydrochloride]	–
< 50	< 50	CN[C@H]1CC[C@@H](N(Cc2cc(-c3cccc(C(C)=O)c3)ccc2OC)C(=O)c2sc3cccc(F)c3c2Cl)CC1 [Compound 363, 3-Chloro-4-fluoro-benzo[b]thiophene-2-carboxylic acid (3′-acetyl-4-methoxy-biphenyl-3-ylmethyl)-(4-methylamino-cyclohexyl)-amide hydrochloride]	–
< 50	< 50	CN[C@H]1CC[C@@H](N(Cc2cc(-c3ccc(F)cc3)ccc2OC)C(=O)c2sc3ccccc3c2Cl)CC1 [Compound 314, 3-Chloro-benzo[b]thiophene-2-carboxylic acid (4′-fluoro-4-methoxy-biphenyl-3-ylmethyl)-(4-methylamino-cyclohexyl)-amide hydrochloride]	–
< 50	< 50	CN[C@H]1CC[C@H](N(Cc2cc(-c3ccccc3)ccc2F)C(=O)c2sc3ccccc3c2Cl)CC1 [Compound 425, 3-Chloro-benzo[b]thiophene-2-carboxylic acid (4-fluoro-biphenyl-3-ylmethyl)-(4-methylamino-cyclohexyl)-amide trifluoroacetate]	–
< 50	50 to 250	CN[C@H]1CC[C@H](N(Cc2cc(-c3ccc(N(C)C=O)cc3)ccc2F)C(=O)c2sc3ccccc3c2Cl)CC1 [Compound 426, 3-Chloro-benzo[b]thiophene-2-carboxylic acid [4-fluoro-4′-(formyl-methyl-amino)-biphenyl-3-ylmethyl]-(4-methylamino-cyclohexyl)-amide trifluoroacetate]	–
< 50	< 50	CN[C@H]1CC[C@@H](N(Cc2cc(-c3ccc(Cl)cc3)ccc2OC)C(=O)c2sc3ccccc3c2Cl)CC1 [Compound 308, 3-Chloro-benzo[b]thiophene-2-carboxylic acid (4′-chloro-4-methoxy-biphenyl-3-ylmethyl)-(4-methylamino-cyclohexyl)-amide hydrochloride]	–
50 to 250	50 to 250	CN[C@H]1CC[C@H](N(Cc2cc(-c3cccc(C#N)c3)ccc2F)C(=O)c2sc3ccccc3c2Cl)CC1 [Compound 420, 3-Chloro-benzo[b]thiophene-2-carboxylic acid (3′-cyano-4-fluoro-biphenyl-3-ylmethyl)-(4-methylamino-cyclohexyl)-amide trifluoroacetate]	–
< 50	< 50	CN[C@H]1CC[C@@H](N(Cc2cc(-c3cccc(C#N)c3)ccc2OC)C(=O)c2sc3cccc(F)c3c2Cl)CC1 [Compound 365, 3-Chloro-4-fluoro-benzo[b]thiophene-2-carboxylic acid (3′-cyano-4-methoxy-biphenyl-3-ylmethyl)-(4-methylamino-cyclohexyl)-amide hydrochloride]	–

— patent US20080182859A1 (Curis, Inc., priority 2006, published 2008)
